What all share (type): functional, Zucker
Assay [1] concerns Rattus norvegicus. In words: Antidyslipidemic activity in ZDF rat assessed as LDL/IgHDL level at 0.3 mg/kg for 9 days by FPLC analysis (reference value: 17.8 mg/dL).
For assay [2], the system named is Rattus norvegicus. Nature of the assay: Antidyslipidemic activity in ZDF rat assessed as HDL level at 0.3 mg/kg for 9 days by FPLC analysis (reference value: 48.3 mg/dL).
Assay [3] has as its system Rattus norvegicus. Nature of the assay: Antidyslipidemic activity in ZDF rat assessed as VLDL level at 0.3 mg/kg for 9 days by FPLC analysis (reference value: 35 mg/dL).

For the compound `CN(CCOc1ccc(CC2SC(=O)NC2=O)cc1)c1ccccn1` (stereo not drawn) [ROSIGLITAZONE], the figures for the Activity in assay [1], in assay [2] and in assay [3] were 19 mg/dL, 61.3 mg/dL and 26.3 mg/dL, respectively.
